Results on 1 compound are retold here after paper PMC10165273, “Itch receptor MRGPRX4 interacts with the receptor activity–modifying proteins” (The Journal of Biological Chemistry, 2023).

pEC50: −log10 of the molar value. Read-outs that look alike come from different tables or passages of the source.

This assay addresses T1, MRGPRX4 (Homo sapiens, UniProt Q96LA9).
T1 construct: expressed in transfected cells; host or cells: HEK293T
As to the kind of experiment: IP1 accumulation HTRF assay, MRGPRX4. In kind it is cell-based. Also on record: key to IP1 Basal / IP1 accumulation with YM (Figure 1c) / response to agonist, MRGPRX4 / IP1 accumulation: % IP1: unstimulated mock-transfected = 0%, fully stimulated MRGPRX4 = 100%. The settings on record: for Emax: HEK-293T. Background: Time-resolved FRET reads energy transfer from a long-lived donor to a nearby acceptor.

T1 sequence (Q96LA9 whole entry): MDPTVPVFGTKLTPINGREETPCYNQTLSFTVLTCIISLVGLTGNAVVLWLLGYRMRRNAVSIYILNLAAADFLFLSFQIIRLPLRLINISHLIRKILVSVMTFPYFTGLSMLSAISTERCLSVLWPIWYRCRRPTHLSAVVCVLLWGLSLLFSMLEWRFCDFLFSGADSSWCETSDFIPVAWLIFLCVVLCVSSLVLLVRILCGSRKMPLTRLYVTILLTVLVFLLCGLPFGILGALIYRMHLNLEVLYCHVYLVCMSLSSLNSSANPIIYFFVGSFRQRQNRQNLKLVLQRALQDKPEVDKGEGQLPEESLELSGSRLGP

As usually defined, the pEC50 is −log10 of the EC50, conventionally taken in molar units. In the case of `C[C@H](CCC(=O)NCCS(=O)(=O)O)[C@H]1CC[C@H]2[C@@H]3CC[C@@H]4C[C@H](O)CC[C@]4(C)[C@H]3C[C@H](O)[C@]12C` [TDCA, Taurodeoxycholic acid], the activation at 100 µM (2 h, log [agonist] (M) -4, MRGX4-transfected, individual replicates, read-out: IP1 accumulation, dose-response (Figure 1a)) amounted to 48.8%. Besides, where the note is “2 h, log [agonist] (M) -4.47712, MRGX4-transfected, individual replicates, read-out: IP1 accumulation, dose-response (Figure 1a)”, the activation at 33.333 µM is 32.5%. In addition, for the setting “2 h, log [agonist] (M) -4.95424, MRGX4-transfected, individual replicates, read-out: IP1 accumulation, dose-response (Figure 1a)”, the activation at 11.111 µM worked out at 22.8%. Besides, the activation at 3.7037 µM (2 h, log [agonist] (M) -5.43136, MRGX4-transfected, individual replicates, read-out: IP1 accumulation, dose-response (Figure 1a)) is 12.8%. Also, the activation at 1.2346 µM (2 h, log [agonist] (M) -5.90849, MRGX4-transfected, individual replicates, read-out: IP1 accumulation, dose-response (Figure 1a)) came out at 12.2%. Also, the activation at 0.4115 µM (2 h, log [agonist] (M) -6.38561, MRGX4-transfected, individual replicates, read-out: IP1 accumulation, dose-response (Figure 1a)) is 12.6%. Moreover, the activation at 0.13717 µM (2 h, log [agonist] (M) -6.86273, MRGX4-transfected, individual replicates, read-out: IP1 accumulation, dose-response (Figure 1a)) is 10.1%. Moreover, for the setting “Figure 4c-f, agonist 100µM, MRGPRX4 alone (reference = 100)”, the “response to agonist, MRGPRX4” value worked out at 100. In addition, the Emax (MRGPRX4 (Fig. 1A), HEK293T, normalized to 100 μM nateglinide, read-out: IP1 Emax) amounted to 84.2% and the Emax (MRGPRX4 (Fig. 1A), HEK293T, normalized to 100 μM nateglinide, read-out: IP1 span) is 69.6%. Besides, the “IP1 Basal” value (MRGPRX4 (Fig. 1A), HEK293T, normalized to 100 μM nateglinide) is recorded as 14.54. Also, the pEC50 (MRGPRX4 (Fig. 1A), HEK293T, normalized to 100 μM nateglinide, read-out: IP1 EC50) was 4.27.
